# Measurements as given in patent US4048299A, “Anticaries confectionaries and oral health products” (William Wrigley, Jr. Co., priority 1970, dated 1977).
# Key:
# [1] = tested on: Lactobacillus casei and Streptococcus sp. FA-1; test: Acid-production inhibition by broth-tube assay, 0.1 percent of compound; format: cell-based; conditions: Table XII; 0.1% of compound
# Procedure: ^(a) Activity was measured by broth-tube assay to determine percent
# (§1) acid-production inhibition obtained by Lactobacillus casei and
# Streptococcus sp. FA-1 in the presence of 0.1 percent of compound.
# ^(a) Activity was measured by broth-tube assay to determine percent o
# as §1
# Streptococcus sp. FA-1 in the presence of 0.1% of compound. Symbols
# [2] = tested on: Lactobacillus casei ATCC 4646; test: Acid production inhibition by aldehydes in product vehicles, broth-tube technique; format: cell-based; conditions: 1 to 5 percent aldehyde
# Procedure: (§2) Other in vitro evaluations utilized a broth tube analysis of representative anticaries aldehydes incorporated in the vehicles of this invention against cultures of acid producing microorganisms normally present in the mouth. Standard laboratory procedures were utilized throughout to evaluate the acid production inhibition and growth inhibition over the incubation time of up to 24 hours.
# (§3) (a)Measured by broth-tube technique.
# (§4) In formulating Tables XIII - XIX representative aldehydes having anticaries activity were selected from those tested as summarized in Tables I - XII and incorporated in seven representative types of products. The products included dextrose and sucrose syrups, obtained commercially in food grades, and compressed candy, hard candy, mouthwash, toothpaste and toothpowder. The five latter products also employed food grade and reagent grade ingredients. These products were formulated by well-known and representative recipes for each type of product. The products were formed in batches of approximately 1 pound or 1 liter and contained all their normal constitutents. Aliquots of each products were blended with one of each of the representative aldehydes selected except in the case of hard candy.
# (§5) Aliquots of the aldehyde incorporating sugar syrups, confectioneries, and mouthwash formulations were added directly to assay flasks and mixed or dissolved as required. Aqueous extracts of the aldehyde incorporated in toothpaste and toothpowder were prepared and aliquots of the filtrate were added to the assay flasks.
# (§6) The assay flasks contained the necessary components for a normal growth response from the organisms employed, Lactobacillus casei ATCC 4646, originally a human oral isolate, Streptococcus spp. K1-R, human caries isolate, and a mixed oral microbial population obtained fresh from saliva on the morning prior to the initiation of each assay incubation period. The assay flask medium was dissolved in distilled water in which was added an equal volume of filter sterilized human saliva to yield a 50 percent saliva-medium combination. The medium contained all normal ingredients such as yeast extract, proteose peptone number 3 (a proprietary formula of Difco Laboratories, Detroit, Michigan) monopotassium phosphate, Tween 80 (polyoxethylene sorbitan monoleate) and water, except a carbon source. This was supplied by the aliquot of the sucrose syrup, dextrose syrup, sucrose in the compressed candy tablet and sucrose in the hard candy product. In addition, an aliquot of sucrose solution concentrate was added to the assay flask as a carbon source for evaluation of mouthwash, toothpaste, and toothpowder vehicles.
# (§7) The lower aldehydes such as glycolaldehyde, crystalline dimer; pyruvaldehyde, aqueous syrup; d,1-glyceraldehyde solution and crystalline dimer; and glutaraldehyde, employed as a 50 percent aqueous solution, are water soluble and were employed directly either as powders or aqueous solutions. The C8 to C12, longer chain aliphatic aldehydes, of which decyl and dodecyl (lauric) were selected as representative, are oil soluble and are prepared and added to the products as emulsions with four parts of Tween 20, polyoxethylene sorbitan monolaurate. The aldehyde concentrations in the products were randomly chosen between 1 to 5 percent by weight. Limits for the concentrations were selected to coincide with the data presented in Tables I - XII in order to verify that the anticaries activity of the aldehydes in the product vehicles tested was equivalent to the activity previously established for the aldehydes alone.
# [3] = tested on: Mixed human oral microorganisms; test: as above; format: cell-based; conditions: 1 to 5 percent aldehyde
# Procedure: as §2, §3, §4, §5, §6, §7
# [4] = tested on: Streptococcus spp. KI-R; test: as above; format: cell-based; conditions: 1 to 5 percent aldehyde
# Procedure: as §2, §3, §4, §5, §6, §7
# [5] = tested on: Lactobacillus casei ATCC 4646; test: Growth inhibition by aldehydes in product vehicles, pour-plate technique; format: cell-based; conditions: 1 to 5 percent aldehyde
# Procedure: as §2
# (§8) (b)Measured by pour-plate technique.
# as §4, §5, §6, §7
# [6] = tested on: Mixed human oral microorganisms; test: as above; format: cell-based; conditions: 1 to 5 percent aldehyde
# Procedure: as §2, §8, §4, §5, §6, §7
# [7] = tested on: Streptococcus spp. KI-R; test: as above; format: cell-based; conditions: 1 to 5 percent aldehyde
# Procedure: as §2, §8, §4, §5, §6, §7
# [8] = tested on: oral microorganisms; test: Comparison of activity against oral microorganisms in vitro; conditions: in words, summary of tables
# Procedure: Two types of in vitro evaluations of the anticaries agents of this invention were conducted. […] The data was compiled through well-known broth tube analysis techniques.
# [9] = in compressed candy tablet, 2 h incubation
# [10] = in compressed candy tablet, 5 h incubation
# [11] = in compressed candy tablet, 24 h incubation
# [12] = in dextrose syrup, 2 h incubation
# [13] = in dextrose syrup, 5 h incubation
# [14] = in dextrose syrup, 24 h incubation
# [15] = in sucrose syrup, 2 h incubation
# [16] = in sucrose syrup, 5 h incubation
# [17] = in sucrose syrup, 24 h incubation
# [18] = in tooth powder (aqueous extract), 2 h incubation
# [19] = in tooth powder (aqueous extract), 5 h incubation
# [20] = in tooth powder (aqueous extract), 24 h incubation
# [21] = in toothpaste (aqueous extract), 2 h incubation
# [22] = in toothpaste (aqueous extract), 5 h incubation
# [23] = in toothpaste (aqueous extract), 24 h incubation
smiles,measurement,setting,value
O=CCCCC=O [Glutaraldehyde],"Activity, Acid-Production Inhibition, %",[1],++++ (99 to 100)
same,Acid Production Inhibition,[2]; [9],0 Per Cent
same,Acid Production Inhibition,[2]; [10],33 Per Cent
same,Acid Production Inhibition,[2]; [11],81 Per Cent
same,Acid Production Inhibition,[2]; [12],76 Per Cent
same,Acid Production Inhibition,[2]; [13],70 Per Cent
same,Acid Production Inhibition,[2]; [14],29 Per Cent
same,Acid Production Inhibition,[2]; [15],100 Per cent
same,Acid Production Inhibition,[2]; [16],75 Per cent
same,Acid Production Inhibition,[2]; [17],50 Per cent
same,Acid Production Inhibition,[2]; [18],0 Per cent
same,Acid Production Inhibition,[2]; [19],33 Per cent
same,Acid Production Inhibition,[2]; [20],21 Per cent
same,Acid Production Inhibition,[2]; [21],80 Per cent
same,Acid Production Inhibition,[2]; [22],80 Per cent
same,Acid Production Inhibition,[2]; [23],50 Per cent
same,Acid Production Inhibition,[3]; [9],100 Per Cent
same,Acid Production Inhibition,[3]; [10],100 Per Cent
same,Acid Production Inhibition,[3]; [11],0 Per Cent
same,Acid Production Inhibition,[3]; [12],23 Per Cent
same,Acid Production Inhibition,[3]; [13],81 Per Cent
same,Acid Production Inhibition,[3]; [14],16 Per Cent
same,Acid Production Inhibition,"[3]; in mouthwash, 2 h incubation",0 Per cent
same,Acid Production Inhibition,"[3]; in mouthwash, 5 h incubation",100 Per cent
same,Acid Production Inhibition,"[3]; in mouthwash, 24 h incubation",91 Per cent
same,Acid Production Inhibition,[3]; [15],100 Per cent
same,Acid Production Inhibition,[3]; [16],59 Per cent
same,Acid Production Inhibition,[3]; [17],0 Per cent
same,Acid Production Inhibition,[3]; [18],67 Per cent
same,Acid Production Inhibition,[3]; [19],95 Per cent
same,Acid Production Inhibition,[3]; [20],45 Per cent
same,Acid Production Inhibition,[3]; [21],0 Per cent
same,Acid Production Inhibition,[3]; [22],0 Per cent
same,Acid Production Inhibition,[3]; [23],0 Per cent
same,Acid Production Inhibition,[4]; [9],100 Per Cent
same,Acid Production Inhibition,[4]; [10],100 Per Cent
same,Acid Production Inhibition,[4]; [11],100 Per Cent
same,Acid Production Inhibition,[4]; [12],70 Per Cent
same,Acid Production Inhibition,[4]; [13],93 Per Cent
same,Acid Production Inhibition,[4]; [14],0 Per Cent
same,Acid Production Inhibition,"[4]; in mouthwash, 2 h incubation",0 Per cent
same,Acid Production Inhibition,"[4]; in mouthwash, 5 h incubation",0 Per cent
same,Acid Production Inhibition,"[4]; in mouthwash, 24 h incubation",99 Per cent
same,Acid Production Inhibition,[4]; [15],100 Per cent
same,Acid Production Inhibition,[4]; [16],83 Per cent
same,Acid Production Inhibition,[4]; [17],0 Per cent
same,Acid Production Inhibition,[4]; [18],0 Per cent
same,Acid Production Inhibition,[4]; [19],0 Per cent
same,Acid Production Inhibition,[4]; [20],0 Per cent
same,Acid Production Inhibition,[4]; [21],100 Per cent
same,Acid Production Inhibition,[4]; [22],100 Per cent
same,Acid Production Inhibition,[4]; [23],84 Per cent
same,Growth Inhibition,[5]; [9],N.S.
same,Growth Inhibition,[5]; [10],N.S.
same,Growth Inhibition,[5]; [11],99.5 Per Cent
same,Growth Inhibition,[5]; [12],N.S.
same,Growth Inhibition,[5]; [13],N.S.
same,Growth Inhibition,[5]; [14],90 Per Cent
same,Growth Inhibition,[5]; [15],N.S.
same,Growth Inhibition,[5]; [16],N.S.
same,Growth Inhibition,[5]; [17],N.S.
same,Growth Inhibition,[5]; [18],N.S.
same,Growth Inhibition,[5]; [19],N.S.
same,Growth Inhibition,[5]; [20],N.S.
same,Growth Inhibition,[5]; [21],N.S.
same,Growth Inhibition,[5]; [22],N.S.
same,Growth Inhibition,[5]; [23],0 Per cent
same,Growth Inhibition,[6]; [9],97.3 Per Cent
same,Growth Inhibition,[6]; [10],99.8 Per Cent
same,Growth Inhibition,[6]; [11],N.S.
same,Growth Inhibition,[6]; [12],92.5 Per Cent
same,Growth Inhibition,[6]; [13],90 Per Cent
same,Growth Inhibition,[6]; [14],N.S.
same,Growth Inhibition,"[6]; in mouthwash, 2 h incubation",100 Per cent
same,Growth Inhibition,"[6]; in mouthwash, 5 h incubation",100 Per cent
same,Growth Inhibition,"[6]; in mouthwash, 24 h incubation",99.9 Per cent
same,Growth Inhibition,[6]; [15],90 Per cent
same,Growth Inhibition,[6]; [16],93 Per cent
same,Growth Inhibition,[6]; [17],N.S.
same,Growth Inhibition,[6]; [18],N.S.
same,Growth Inhibition,[6]; [19],96.6 Per cent
same,Growth Inhibition,[6]; [20],N.S.
same,Growth Inhibition,[6]; [21],0 Per cent
same,Growth Inhibition,[6]; [22],N.S.
same,Growth Inhibition,[6]; [23],N.S.
same,Growth Inhibition,[7]; [9],N.S.
same,Growth Inhibition,[7]; [10],N.S.
same,Growth Inhibition,[7]; [11],N.S.
same,Growth Inhibition,[7]; [12],N.S.
same,Growth Inhibition,[7]; [13],99.96 Per Cent
same,Growth Inhibition,[7]; [14],0 Per Cent
same,Growth Inhibition,"[7]; in mouthwash, 2 h incubation",100 Per cent
same,Growth Inhibition,"[7]; in mouthwash, 5 h incubation",99.999 Per cent
same,Growth Inhibition,"[7]; in mouthwash, 24 h incubation",100 Per cent
same,Growth Inhibition,[7]; [15],N.S.
same,Growth Inhibition,[7]; [16],> 99 Per cent
same,Growth Inhibition,[7]; [17],90 Per cent
same,Growth Inhibition,[7]; [18],N.S.
same,Growth Inhibition,[7]; [19],N.S.
same,Growth Inhibition,[7]; [20],N.S.
same,Growth Inhibition,[7]; [21],N.S.
same,Growth Inhibition,[7]; [22],N.S.
same,Growth Inhibition,[7]; [23],N.S.
same,Solubility,,water soluble
CC(O)C=O (stereo not drawn) [α-Hydroxypropionaldehyde],Anticaries activity in vitro,[8],excellent anticaries activity
